Laboratory results as given in ChEMBL document CHEMBL1157348, “The alkaloid conessine and analogues as potent histamine H3 receptor antagonists” (J Med Chem, 2008).

Legend:
[1] = target: T1, Alpha-2A adrenergic receptor (Homo sapiens, UniProt P08913); assay: Displacement of [3H]rauwolscine from human adrenergic alpha 2C10 receptor expressed in mouse LTK- cells; format: cell-based
T1 sequence (P08913 whole entry): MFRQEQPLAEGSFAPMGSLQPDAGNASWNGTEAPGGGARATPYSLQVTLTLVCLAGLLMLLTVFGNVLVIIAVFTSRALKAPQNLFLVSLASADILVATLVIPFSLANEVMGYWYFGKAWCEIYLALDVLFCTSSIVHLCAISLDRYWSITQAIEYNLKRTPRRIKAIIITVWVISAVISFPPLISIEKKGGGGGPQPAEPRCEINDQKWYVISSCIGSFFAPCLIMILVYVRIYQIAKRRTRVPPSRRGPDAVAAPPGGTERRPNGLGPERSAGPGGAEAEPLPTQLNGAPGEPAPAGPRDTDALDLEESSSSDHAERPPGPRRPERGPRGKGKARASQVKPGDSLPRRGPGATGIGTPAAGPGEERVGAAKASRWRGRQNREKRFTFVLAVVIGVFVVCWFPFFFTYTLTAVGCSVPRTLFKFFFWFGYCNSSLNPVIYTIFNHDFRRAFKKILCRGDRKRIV

Histamine H3 receptor [2] = target: T2, Histamine H3 receptor (Homo sapiens, UniProt Q9Y5N1); assay: Displacement of [3H]NAMH from histamine H3 receptor in human cortex
Histamine H3 receptor [3] = target: T2, Histamine H3 receptor; assay: Antagonist activity at human full length histamine H3 receptor expressed in HEK293 cells assessed as inhibition of (R)-alpha-methylhistamine-induced intracellular calcium release by FLIPR; format: functional, cell-based
Histamine H3 receptor [4] = target: T2, Histamine H3 receptor; assay: Displacement of [3H]NAMH from human full length histamine H3 receptor expressed in rat C6 cells; format: cell-based
[5] = Displacement of [3H]LY278584 from 5HT2 receptor in rat frontal cortex; format: tissue-based
Histamine H2 receptor = Histamine H2 receptor (Homo sapiens, UniProt P25021); assay: Displacement of [3H]tiotidine from human histamine H2 receptor; settings: read-out: pKi (converted)
Histamine H1 receptor = Histamine H1 receptor (Homo sapiens, UniProt P35367); assay: Displacement of [3H]mepyramine from human histamine H1 receptor; settings: read-out: pKi (converted)
[6] = target: T3, Alpha-2C adrenergic receptor (Homo sapiens, UniProt P18825); assay: Displacement of [3H]rauwolscine from human adrenergic alpha 2C4 receptor expressed in mouse LTK- cells; format: cell-based
T3 sequence (P18825 whole entry): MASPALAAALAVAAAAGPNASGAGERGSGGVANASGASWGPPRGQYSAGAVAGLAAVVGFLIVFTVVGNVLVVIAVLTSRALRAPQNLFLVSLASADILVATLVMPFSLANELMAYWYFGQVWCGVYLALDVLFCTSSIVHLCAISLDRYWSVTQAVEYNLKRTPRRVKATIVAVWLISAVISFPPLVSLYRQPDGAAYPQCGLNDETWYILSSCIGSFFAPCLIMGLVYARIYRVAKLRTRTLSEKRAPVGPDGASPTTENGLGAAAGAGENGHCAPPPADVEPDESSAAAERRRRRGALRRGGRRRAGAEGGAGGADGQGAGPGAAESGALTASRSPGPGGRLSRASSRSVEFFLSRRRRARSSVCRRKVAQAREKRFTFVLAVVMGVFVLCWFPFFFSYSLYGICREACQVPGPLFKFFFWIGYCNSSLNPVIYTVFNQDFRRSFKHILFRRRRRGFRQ

Histamine H3 receptor [7] = target: T4, Histamine H3 receptor (Rattus norvegicus, UniProt Q9QYN8); assay: Displacement of [3H]NAMH from histamine H3 receptor in rat cortex; settings: read-out: pKi (converted)
[8] = Ratio of drug level in brain to plasma at 1 mg/kg, ip after 5 hrs; format: ADME, organism-based; parameters: dose 1 mg/kg, route intraperitoneal; settings: rat
[9] = Drug level in rat brain at 1 mg/kg, ip after 1 hr; format: ADME, organism-based; parameters: dose 1 mg/kg, route intraperitoneal; settings: read-out: Drug uptake
[10] = Drug level in rat blood at 1 mg/kg, ip after 5 hrs; format: ADME, organism-based; parameters: dose 1 mg/kg, route intraperitoneal; settings: read-out: Drug uptake
[11] = Drug level in rat blood at 1 mg/kg, ip after 1 hr; format: ADME, organism-based; parameters: dose 1 mg/kg, route intraperitoneal; settings: read-out: Drug uptake
[12] = Ratio of drug level in brain to plasma at 1 mg/kg, ip after 24 hrs; format: ADME, organism-based; parameters: dose 1 mg/kg, route intraperitoneal; settings: rat
Rattus norvegicus = assay: Toxicity in rat assessed as CNS side effects at 1.3 to 13 mg/kg, ip; format: organism-based; parameters: dose 1.3-13 mg/kg, route intraperitoneal; settings: in vivo
Histamine H3 receptor [13] = target: T4, Histamine H3 receptor; assay: Displacement of [3H]NAMH from rat full length histamine H3 receptor expressed in rat C6 cells; format: cell-based; settings: read-out: pKi (converted)
Histamine H4 receptor = Histamine H4 receptor (Homo sapiens, UniProt Q9H3N8); assay: Displacement of [3H]histamine from human histamine H4 receptor expressed in HEK cells; format: cell-based, HEK293; settings: read-out: pKi (converted)
Histamine H3 receptor [14] = target: T2, Histamine H3 receptor; settings: C6
Histamine H3 receptor [15] = target: Histamine H3 receptor (Cavia porcellus, UniProt Q9JI35); assay: Antagonist activity at histamine H3 receptor in guinea pig ileum assessed as inhibition of (R)-alpha-methylhistamine-induced response
[16] = Plasma concentration in rat at 1 mg/kg, ip after 24 hrs; format: ADME, organism-based; parameters: dose 1 mg/kg, route intraperitoneal
[17] = Displacement of [3H]LY278584 from 5HT1 receptor in rat frontal cortex; format: tissue-based
[18] = Drug level in rat blood at 1 mg/kg, ip after 24 hrs; format: ADME, organism-based; parameters: dose 1 mg/kg, route intraperitoneal; settings: read-out: Drug uptake
[19] = Ratio of drug level in brain to plasma at 1 mg/kg, ip after 1 hr; format: ADME, organism-based; parameters: dose 1 mg/kg, route intraperitoneal; settings: rat
Histamine H3 receptor [20] = target: T2, Histamine H3 receptor; settings: HEK293
[21] = Plasma concentration in rat at 1 mg/kg, ip after 5 hrs; format: ADME, organism-based; parameters: dose 1 mg/kg, route intraperitoneal
[22] = target: Histamine H3 receptor (Rattus norvegicus) (UniProt Q9QYN8); assay: Antagonist activity at rat full length histamine H3 receptor expressed in HEK cells assessed as inhibition of forskolin-induced cAMP accumulation by SPA; settings: HEK293
[23] = Selectivity ratio for human adrenergic alpha 2C4 receptor over human H3 receptor
[24] = Drug level in rat brain at 1 mg/kg, ip after 5 hrs; format: ADME, organism-based; parameters: dose 1 mg/kg, route intraperitoneal; settings: read-out: Drug uptake
[25] = Plasma concentration in rat at 1 mg/kg, ip after 1 hr; format: ADME, organism-based; parameters: dose 1 mg/kg, route intraperitoneal
[26] = Displacement of [3H]LY278584 from 5HT3 receptor in rat frontal cortex; format: tissue-based
[27] = Drug level in rat brain at 1 mg/kg, ip after 24 hrs; format: ADME, organism-based; parameters: dose 1 mg/kg, route intraperitoneal; settings: read-out: Drug uptake

T2 sequence (Q9Y5N1 whole entry): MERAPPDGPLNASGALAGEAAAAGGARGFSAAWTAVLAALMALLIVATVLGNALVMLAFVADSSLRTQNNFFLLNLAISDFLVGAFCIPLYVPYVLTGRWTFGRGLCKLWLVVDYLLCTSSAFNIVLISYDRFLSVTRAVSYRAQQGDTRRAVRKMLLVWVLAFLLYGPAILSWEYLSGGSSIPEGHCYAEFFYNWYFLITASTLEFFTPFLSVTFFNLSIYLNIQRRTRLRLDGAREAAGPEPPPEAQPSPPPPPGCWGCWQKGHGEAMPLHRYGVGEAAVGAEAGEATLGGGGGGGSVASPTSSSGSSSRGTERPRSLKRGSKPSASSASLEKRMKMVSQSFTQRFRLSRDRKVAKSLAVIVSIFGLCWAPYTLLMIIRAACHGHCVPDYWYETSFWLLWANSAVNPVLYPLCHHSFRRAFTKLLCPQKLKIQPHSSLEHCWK
T4 sequence (Q9QYN8 whole entry): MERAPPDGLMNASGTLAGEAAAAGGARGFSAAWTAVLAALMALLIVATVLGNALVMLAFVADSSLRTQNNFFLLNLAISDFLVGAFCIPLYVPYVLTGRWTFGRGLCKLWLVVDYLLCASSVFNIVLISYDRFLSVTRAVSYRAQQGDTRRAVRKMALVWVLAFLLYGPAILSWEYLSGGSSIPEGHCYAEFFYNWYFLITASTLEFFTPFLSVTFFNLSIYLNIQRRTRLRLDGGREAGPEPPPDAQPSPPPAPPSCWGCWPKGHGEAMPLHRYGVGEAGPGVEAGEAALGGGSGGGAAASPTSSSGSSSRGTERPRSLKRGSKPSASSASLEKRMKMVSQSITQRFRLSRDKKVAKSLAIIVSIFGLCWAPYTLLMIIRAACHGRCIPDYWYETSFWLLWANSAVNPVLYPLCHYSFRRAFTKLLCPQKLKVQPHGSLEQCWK
Chain of Histamine H2 receptor (P25021 whole entry): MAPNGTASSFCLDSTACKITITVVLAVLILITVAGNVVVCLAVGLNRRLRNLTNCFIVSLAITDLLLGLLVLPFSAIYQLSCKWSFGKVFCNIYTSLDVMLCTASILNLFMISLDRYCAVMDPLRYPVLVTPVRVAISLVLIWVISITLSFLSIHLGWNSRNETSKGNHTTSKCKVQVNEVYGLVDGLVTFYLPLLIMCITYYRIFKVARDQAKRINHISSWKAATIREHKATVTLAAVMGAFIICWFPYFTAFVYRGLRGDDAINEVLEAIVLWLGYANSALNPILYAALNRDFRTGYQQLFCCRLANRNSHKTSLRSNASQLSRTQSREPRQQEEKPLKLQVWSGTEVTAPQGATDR
Chain of Histamine H1 receptor (P35367 whole entry): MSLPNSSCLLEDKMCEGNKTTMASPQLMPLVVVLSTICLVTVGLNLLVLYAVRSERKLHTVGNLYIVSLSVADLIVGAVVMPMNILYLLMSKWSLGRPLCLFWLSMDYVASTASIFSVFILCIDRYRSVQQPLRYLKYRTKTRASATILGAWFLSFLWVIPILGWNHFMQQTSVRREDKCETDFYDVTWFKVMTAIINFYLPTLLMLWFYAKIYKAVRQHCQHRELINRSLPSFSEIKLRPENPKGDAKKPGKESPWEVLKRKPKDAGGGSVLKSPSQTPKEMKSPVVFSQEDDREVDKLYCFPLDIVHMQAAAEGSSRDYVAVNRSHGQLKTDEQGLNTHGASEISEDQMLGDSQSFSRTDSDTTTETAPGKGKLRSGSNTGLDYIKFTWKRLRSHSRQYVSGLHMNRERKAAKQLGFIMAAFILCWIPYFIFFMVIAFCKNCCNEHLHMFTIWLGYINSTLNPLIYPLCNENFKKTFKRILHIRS
Chain of Histamine H3 receptor (Rattus norvegicus) (Q9QYN8 whole entry): as the sequence (Q9QYN8 whole entry) above
Chain of Histamine H3 receptor (Cavia porcellus, UniProt Q9JI35) (Q9JI35 whole entry): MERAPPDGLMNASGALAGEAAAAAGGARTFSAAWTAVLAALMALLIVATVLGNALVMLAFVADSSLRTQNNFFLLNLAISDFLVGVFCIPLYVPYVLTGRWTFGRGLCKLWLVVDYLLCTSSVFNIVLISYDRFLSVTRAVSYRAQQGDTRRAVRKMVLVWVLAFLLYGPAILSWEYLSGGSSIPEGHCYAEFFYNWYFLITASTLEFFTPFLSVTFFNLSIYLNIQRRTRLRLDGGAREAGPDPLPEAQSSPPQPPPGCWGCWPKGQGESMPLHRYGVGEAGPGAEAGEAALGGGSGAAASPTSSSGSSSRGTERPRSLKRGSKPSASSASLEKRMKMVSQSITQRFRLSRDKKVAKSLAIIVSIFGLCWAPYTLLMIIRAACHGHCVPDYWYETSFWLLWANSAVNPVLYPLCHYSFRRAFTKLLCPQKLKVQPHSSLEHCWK
Chain of Histamine H4 receptor (Q9H3N8 whole entry): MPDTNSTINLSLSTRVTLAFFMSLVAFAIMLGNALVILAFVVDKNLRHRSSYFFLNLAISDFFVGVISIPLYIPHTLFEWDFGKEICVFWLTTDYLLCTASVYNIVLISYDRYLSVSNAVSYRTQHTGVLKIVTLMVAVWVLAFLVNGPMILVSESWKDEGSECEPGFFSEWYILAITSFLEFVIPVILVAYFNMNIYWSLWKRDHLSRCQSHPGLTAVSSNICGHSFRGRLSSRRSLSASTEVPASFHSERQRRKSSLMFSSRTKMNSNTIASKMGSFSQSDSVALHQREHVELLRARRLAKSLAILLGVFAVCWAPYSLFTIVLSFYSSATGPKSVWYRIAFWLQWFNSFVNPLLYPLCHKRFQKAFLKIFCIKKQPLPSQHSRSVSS

Compound `C[C@H]1[C@H]2CC[C@H]3[C@@H]4CC=C5C[C@@H](N(C)C)CC[C@]5(C)[C@H]4CC[C@]23CN1C` [CONESSINE] has a Ki [1] of 0.661 µM, a Ki (Histamine H3 receptor [2]) of 0.00347 µM and a pKb (Histamine H3 receptor [3]) of 8.08. For the same compound, the Ki (Histamine H3 receptor [4]) was 0.00537 µM, the pKi [5] was under 5 and the Ki (Histamine H2 receptor) was over 10 µM. The Ki (Histamine H1 receptor) was over 10 µM, the Ki [6] was 0.0106 µM and the Ki (Histamine H3 receptor [7]) was 0.0245 µM. It also gave a Kp at 5 h [8] of 95.4, a concentration at 1 h [9] of 6570 ng/g and a concentration at 5 h [10] of 0.306 µg/mL. For the same compound, the concentration at 1 h [11] was 0.444 µg/mL, the Kp at 24 h [12] was 114 and the Activity (Rattus norvegicus) was “Non-toxic”. For the same compound, the Ki (Histamine H3 receptor [13]) was 0.0123 µM, the Ki (Histamine H4 receptor) was over 10 µM and the pKb (Histamine H3 receptor [14]) was 6.14. It also gave a Kb (Histamine H3 receptor [15]) of 0.282 µM, a concentration at 24 h [16] of 0.037 µg/mL and a pKi [17] of 5.72. The concentration at 24 h [18] was 0.102 µg/mL, the Kp at 1 h [19] was 46 and the pKb (Histamine H3 receptor [20]) was 7.96. It also gave a concentration at 5 h [21] of 0.089 µg/mL, a pKb [22] of 6.99 and a Selectivity ratio [23] of 2. The concentration at 5 h [24] was 6800 ng/g, the concentration at 1 h [25] was 0.148 µg/mL and the pKi [26] was under 5. It also gave a concentration at 24 h [27] of 4140 ng/g.
